Values of other authors, collected in PubChem BioAssay AID1259409 (Chemical Carcinogenesis Research Information System (CCRIS), 2018).

Test system: rodent chemically induced tumor inhibition, incidence and multiplicity
Experiment: CCRIS tumor inhibitor studies

## C#CCCc1ccccc1
Carcinogen: 4-(METHYLNITROSAMINO)-1-(3-PYRIDYL)-1-BUTANONE, 64091-91-4, Dose [Inhibitor]: 0, 5 UMOL IN 0.1 ML CORN OIL ONCE 2 HR PRIOR TO CARCINOGEN DOSE (STUDY DURATION: 16 WK), Route [Inhibitor]: GAVAGE, Species: MOUSE, Strain/Sex: STRAIN-A/FEMALE, Target Tissue: Type of Lesion: LUNG: ADENOMA, Dose [Carcinogen]: 10 UMOL IN 0.1 ML SALINE ONCE, Promoter: NONE USED
  tumour outcome (control, treated, inhibition, significance): 100%, 60%, 40%, p<0.01

## C=C1C(=O)O[C@@H]2/C=C(\C)CCC=C(C)CC[C@@H]12
Carcinogen: AZOXYMETHANE, 25843-45-2, Dose [Inhibitor]: 0, 0.02% IN DIET FOR 4 WK BEGINNING AT TIME OF CARCINOGEN TREATMENT (STUDY DURATION: 33 WK), Route [Inhibitor]: ORAL, Species: RAT, Strain/Sex: F344/MALE, Target Tissue: Type of Lesion: INTESTINE: ADENOMA OR ADENOCARCINOMA, Dose [Carcinogen]: 15 MG/KG BW 1/WK FOR 3 WK, Promoter: NONE USED
  tumour outcome (control, treated, inhibition, significance): 15/30 (50%), 5/29 (17%), 66%, p<0.05

## CC[C@H](C)C(=O)O[C@H]1CCC=C2C=C[C@H](C)[C@H](CC[C@@H]3C[C@@H](O)CC(=O)O3)[C@H]21
Carcinogen: N-ETHYL-N-HYDROXYETHYLNITROSAMINE, 13147-25-6, Dose [Inhibitor]: 0, 0.02% IN DIET BEGINNING 23 WK POST LAST CARCINOGEN DOSE AND CONTINUING TO WK 40 (STUDY DURATION: 40 WK), Route [Inhibitor]: ORAL, Species: RAT, Strain/Sex: WISTAR/MALE, Target Tissue: Type of Lesion: KIDNEY: RENAL CELL TUMORS, Dose [Carcinogen]: 0.1% IN DIET FOR 2 WK, Promoter: NONE USED
  tumour outcome (control, treated, inhibition, significance): 6/17 (35%), 1/10 (10%), 71%, not calculated

## Cc1cc2cc3ccc4cccc5ccc(c2oc1=O)c3c45
Carcinogen: DIMETHYLBENZ[A]ANTHRACENE, 57-97-6, Dose [Inhibitor]: 0, 200 NMOL IN ACETONE ONCE 5 MIN PRIOR TO CARCINOGEN DOSE (STUDY DURATION: 14 WK), Route [Inhibitor]: DERMAL, Species: MOUSE, Strain/Sex: SENCAR/FEMALE, Target Tissue: Type of Lesion: SKIN: PAPILLOMA, Dose [Carcinogen]: 10 NMOL ONCE, Promoter: 12-O-TETRADECANOYLPHORBOL-13-ACETATE, 16561-29-8
  outcome: 8.9, 2.8, 69%, p<0.05
Carcinogen: DIMETHYLBENZ[A]ANTHRACENE, 57-97-6, Dose [Inhibitor]: 0, 200 NMOL IN ACETONE ONCE 24 HR PRIOR TO CARCINOGEN DOSE (STUDY DURATION: 14 WK), Route [Inhibitor]: DERMAL, Species: MOUSE, Strain/Sex: SENCAR/FEMALE, Target Tissue: Type of Lesion: SKIN: PAPILLOMA, Dose [Carcinogen]: 10 NMOL ONCE, Promoter: 12-O-TETRADECANOYLPHORBOL-13-ACETATE, 16561-29-8
  outcome: 8.9, 2.1, 76%, p<0.05
Carcinogen: DIMETHYLBENZ[A]ANTHRACENE, 57-97-6, Dose [Inhibitor]: 0, 400 NMOL IN ACETONE ONCE 5 MIN PRIOR TO CARCINOGEN DOSE (STUDY DURATION: 14 WK), Route [Inhibitor]: DERMAL, Species: MOUSE, Strain/Sex: SENCAR/FEMALE, Target Tissue: Type of Lesion: SKIN: PAPILLOMA, Dose [Carcinogen]: 10 NMOL ONCE, Promoter: 12-O-TETRADECANOYLPHORBOL-13-ACETATE, 16561-29-8
  outcome: 8.9, 3.3, 63%, p<0.05

## C=CCSC[C@H](N)C(=O)O
Carcinogen: 7,12-DIMETHYLBENZ[A]ANTHRACENE (57-97-6), Dose [Inhibitor]: 0, 200 MG/KG ON ALTERNATE DAYS FOR 14 WK (STUDY DURATION: 14 WK), Route [Inhibitor]: ORAL, Species: HAMSTER, Strain/Sex: SYRIAN/MALE, Target Tissue: Type of Lesion: BUCCAL POUCH: SQUAMOUS CELL CARCINOMA, Dose [Carcinogen]: 0.5% IN LIQUID PARAFFIN TO RIGHT BUCCAL POUCH, ALTERNATE DAYS FOR 14 WK, Promoter: NONE USED
  outcome: 10, 0, 100%, not calculated
Carcinogen: N-METHYL-N'-NITRO-N-NITROSOGUANIDINE [70-25-7], Dose [Inhibitor]: 200 MG/KG 3X/WK BEGINNING ON DAY 1 (STUDY DURATION: 21 WK), Route [Inhibitor]: GAVAGE, Species: RAT, Strain/Sex: WISTAR/MALE, Target Tissue: Type of Lesion: STOMACH: CARCINOMA, Dose [Carcinogen]: 200 MG/KG BW ONCE ON DAYS 0 AND 14, Promoter: SODIUM CHLORIDE [7647-14-5]
  tumour outcome (control, treated, inhibition, significance): 6/6 (100%), 0/6 (0%), 100%, not determined
Carcinogen: N-METHYL-N-NITROSOUREA, 684-93-5, Dose [Inhibitor]: 0, 57 UMOL/KG DIET FOR 25 WK BEGINNING 2 WK PRIOR TO CARCINOGEN DOSE (STUDY DURATION: 25 WK), Route [Inhibitor]: ORAL, Species: RAT, Strain/Sex: SPRAGUE-DAWLEY/FEMALE, Target Tissue: Type of Lesion: MAMMARY GLAND: TUMOR, Dose [Carcinogen]: 15 MG/KG BW ONCE, Promoter: NONE USED
  tumour outcome (control, treated, inhibition, significance): 81%, 48%, 41%, p<0.05

## O=C(O)[C@@H](O)[C@@H](O)[C@H](O)[C@@H](O)C(=O)O
Carcinogen: 7,12-DIMETHYLBENZ[A]ANTHRACENE, 57-97-6, Dose [Inhibitor]: 0, 2% IN DIET FOR THE DURATION OF STUDY BEGINNING 1 WK PRIOR TO CARCINOGEN DOSE (STUDY DURATION: 105 WK), Route [Inhibitor]: ORAL, Species: RAT, Strain/Sex: SPRAGUE-DAWLEY/FEMALE, Target Tissue: Type of Lesion: MAMMARY GLAND: TUMOR, Dose [Carcinogen]: 15 MG IN 1 ML SESAME OIL ONCE, Promoter: NONE USED
  tumour outcome (control, treated, inhibition, significance): 88%, 80%, 9%, not significant
Carcinogen: 7,12-DIMETHYLBENZ[A]ANTHRACENE, 57-97-6, Dose [Inhibitor]: 0, 128 MMOL/KG OF DIET FOR 15.5 WK BEGINNING 10 D POST CARCINOGEN DOSE (STUDY DURATION: 17 WK), Route [Inhibitor]: ORAL, Species: RAT, Strain/Sex: SPRAGUE-DAWLEY/FEMALE, Target Tissue: Type of Lesion: MAMMARY GLAND: TUMOR, Dose [Carcinogen]: 15 MG IN 1 ML OF SESAME OIL ONCE AT 50 D OF AGE, Promoter: NONE USED
  tumour outcome (control, treated, inhibition, significance): 92%, 58%, 37%, not calculated
Carcinogen: 7,12-DIMETHYLBENZ[A]ANTHRACENE, 57-97-6, Dose [Inhibitor]: 0, 128 MMOL/KG OF DIET FOR 18.5 WK BEGINNING 10 D PRIOR TO CARCINOGEN DOSE (STUDY DURATION: 18.5 WK), Route [Inhibitor]: ORAL, Species: RAT, Strain/Sex: SPRAGUE-DAWLEY/FEMALE, Target Tissue: Type of Lesion: MAMMARY GLAND: TUMOR, Dose [Carcinogen]: 15 MG IN 1 ML OF SESAME OIL ONCE AT 50 D OF AGE, Promoter: NONE USED
  tumour outcome (control, treated, inhibition, significance): 83%, 50%, 40%, not calculated
Carcinogen: 7,12-DIMETHYLBENZ[A]ANTHRACENE, 57-97-6, Dose [Inhibitor]: 0, 128 MMOL/KG OF DIET FOR 20 D BEGINNING 10 D PRIOR TO CARCINOGEN DOSE (STUDY DURATION: 18.5 WK), Route [Inhibitor]: ORAL, Species: RAT, Strain/Sex: SPRAGUE-DAWLEY/FEMALE, Target Tissue: Type of Lesion: MAMMARY GLAND: TUMOR, Dose [Carcinogen]: 15 MG IN 1 ML OF SESAME OIL ONCE AT 50 D OF AGE, Promoter: NONE USED
  tumour outcome (control, treated, inhibition, significance): 100%, 82%, 18%, not calculated
Carcinogen: 7,12-DIMETHYLBENZ[A]ANTHRACENE, 57-97-6, Dose [Inhibitor]: 32 MMOL/KG OF CHOW DIET IN 25 ML OF THE VEHICLE (ETHANOL/TRICAPRYLIN 1:4 (VOL/VOL) PLUS 6% (WT/VOL) ALPHA-TOCOPHEROL) BE, Route [Inhibitor]: ORAL, Species: RAT, Strain/Sex: SPRAGUE-DAWLEY/FEMALE, Target Tissue: Type of Lesion: MAMMARY GLAND: TUMOR, Dose [Carcinogen]: 75 MG/KG BW IN 1.0 ML SESAME OIL ONCE, Promoter: NONE USED
  tumour outcome (control, treated, inhibition, significance): 70%, 55%, 21%, not significant
Carcinogen: 7,12-DIMETHYLBENZ[A]ANTHRACENE, 57-97-6, Dose [Inhibitor]: 64 MMOL/KG OF CHOW DIET IN 25 ML OF THE VEHICLE (ETHANOL/TRICAPRYLIN 1:4 (VOL/VOL) PLUS 6% (WT/VOL) ALPHA-TOCOPHEROL) BE, Route [Inhibitor]: ORAL, Species: RAT, Strain/Sex: SPRAGUE-DAWLEY/FEMALE, Target Tissue: Type of Lesion: MAMMARY GLAND: TUMOR, Dose [Carcinogen]: 75 MG/KG BW IN 1.0 ML SESAME OIL ONCE, Promoter: NONE USED
  tumour outcome (control, treated, inhibition, significance): 70%, 55%, 21%, not significant
Carcinogen: 7,12-DIMETHYLBENZ[A]ANTHRACENE, 57-97-6, Dose [Inhibitor]: 128 MMOL/KG OF CHOW DIET IN 25 ML OF THE VEHICLE (ETHANOL/TRICAPRYLIN 1:4 (VOL/VOL) PLUS 6% (WT/VOL) ALPHA-TOCOPHEROL) B, Route [Inhibitor]: ORAL, Species: RAT, Strain/Sex: SPRAGUE-DAWLEY/FEMALE, Target Tissue: Type of Lesion: MAMMARY GLAND: TUMOR, Dose [Carcinogen]: 75 MG/KG BW IN 1.0 ML SESAME OIL ONCE, Promoter: NONE USED
  tumour outcome (control, treated, inhibition, significance): 70%, 35%, 50%, not significant
Carcinogen: AZOXYMETHANE [25843-45-2], Dose [Inhibitor]: 3.5% IN DIET FOR 38 WK BEGINNING 1 WK POST LAST CARCINOGEN DOSE (STUDY DURATION: 40 WK), Route [Inhibitor]: ORAL, Species: RAT, Strain/Sex: F344/MALE, Target Tissue: Type of Lesion: COLON: TUMOR, Dose [Carcinogen]: 15 MG/KG BW 1X/WK FOR 2 WK (STUDY DURATION: 40 WK), Promoter: NONE
  tumour outcome (control, treated, inhibition, significance): 15/26 (57.7%), 6/24 (25.0%), 57%, p<0.05

## CCCCC(CC)COC(=O)c1ccccc1C(=O)OCC(CC)CCCC (stereo not drawn)
Carcinogen: N-NITROSOBIS(2-HYDROXYPROPYL)AMINE, 53609-64-6, Dose [Inhibitor]: 0, 1.2% IN DIET FOR 30 WK BEGINNING POST CARCINOGEN TREATMENT (STUDY DURATION: 35 WK), Route [Inhibitor]: ORAL, Species: HAMSTER, Strain/Sex: SYRIAN/MALE, Target Tissue: Type of Lesion: PANCREAS: ADENOCARCINOMA, Dose [Carcinogen]: 500 MG/KG 1/WK FOR 5 WK, Promoter: NONE USED
  tumour outcome (control, treated, inhibition, significance): 8/17 (47%), 7/19 (37%), 21%, not significant
